pEC50: −log10 of the molar value. Values after ≈ are worked out from the molar mass of the structure shown.

Data set [1] in a line: Solubility measurements in 0.2 M phosphate buffer pH 7.4. The format is physicochemical. The following applies: 0.2 M phosphate buffer pH 7.4, ambient temperature, results from two dilutions; for Solubility: 24 h; for solubility at 24 h: phosphate buffer, pH 7.4, aqueous buffer, thermodynamic from solid. On the procedure: Solubilities of a di- and a mono-acylated compound were measured in 0.2 M phosphate buffer pH 7.4 and compared with the solubility of the corresponding non-acylated compound.
Saturated compound solutions were prepared by mixing the compounds and the buffer solution at ambient temperature for 24 h followed by separation of the aqueous solution by centrifugation. Standard solutions of compounds (1.00 mg/mL) were prepared in DMSO.
The compound concentrations were measured by HPLC-MS/UV (Waters Alliance 2790 Separations Module/996 PDA detector/Micromass Quattro Micro) after appropriate dilutions of the aqueous saturated solutions ( 1/10 and 1/100) and the standard solutions ( 1/100, 1/200, and 1/1000), respectively, with mobile phase solvent.

The test system of data set [2] is EAE in female Dark Agouti (DA) rats. The experiment in a line: Experimental autoimmune encephalomyelitis (EAE) MS model in rats. The settings on record: FIG. 1. In kind it is in vivo, rat. On the procedure:
EAE was induced day 0 in female Dark Agouti (DA) rats with subcutaneous injection of spinal cord homogenate (SCH, approximately 2 mg, from naive rats) emulsified in incomplete Freunds adjuvant (IFA, total volume 100 ul per rat) at the base of the tail. Disease was evaluated daily from day 5 until the end of the experiment (day 22) according to following criteria: 0=healthy, 1=tail weakness, 2=tail paralysis, 3=tail paralysis and mild waddle, 4=tail paralysis and severe waddle, 5=tail paralysis and paralysis of one limb, 6=tail paralysis and paralysis of both hind limbs, 7=tetraparesis or paralysis of three limbs, and 8=premorbid or dead. Statistical analysis was performed using Prism 5 for Mac OS X (GraphPad Software, San Diego, Calif., USA).
Treatment was initiated day 0 after EAE induction with following treatment injections administered day 3, 6, and 9. The dose was administered as a 500 uL corn oil solution subcutaneously at the lower back. Treatment groups were mixed in all cages to avoid cage effects.
Control (vehicle, corn oil, Sigma Aldrich), 11 animals
Cyclosporin A (positive control, Sigma Aldrich), 10 mg/kg, first dissolved in 70% EtOH to 50 mg/mL, 11 animals
Compound 9 (N-acetyl-N-phenyl-4-acetoxy-5-chloro-1,2-dihydro-1-methyl-2-oxo-quinoline-3-carboxamide, Example 74), 1 mg/kg, 10 animals

In another data set the target is T1, human AhR (Homo sapiens, UniProt P35869).
T1 construct: host or cells: GeneBLAzer CYP1A1-bla LS-180 cell line
T1 sequence (P35869 11-848): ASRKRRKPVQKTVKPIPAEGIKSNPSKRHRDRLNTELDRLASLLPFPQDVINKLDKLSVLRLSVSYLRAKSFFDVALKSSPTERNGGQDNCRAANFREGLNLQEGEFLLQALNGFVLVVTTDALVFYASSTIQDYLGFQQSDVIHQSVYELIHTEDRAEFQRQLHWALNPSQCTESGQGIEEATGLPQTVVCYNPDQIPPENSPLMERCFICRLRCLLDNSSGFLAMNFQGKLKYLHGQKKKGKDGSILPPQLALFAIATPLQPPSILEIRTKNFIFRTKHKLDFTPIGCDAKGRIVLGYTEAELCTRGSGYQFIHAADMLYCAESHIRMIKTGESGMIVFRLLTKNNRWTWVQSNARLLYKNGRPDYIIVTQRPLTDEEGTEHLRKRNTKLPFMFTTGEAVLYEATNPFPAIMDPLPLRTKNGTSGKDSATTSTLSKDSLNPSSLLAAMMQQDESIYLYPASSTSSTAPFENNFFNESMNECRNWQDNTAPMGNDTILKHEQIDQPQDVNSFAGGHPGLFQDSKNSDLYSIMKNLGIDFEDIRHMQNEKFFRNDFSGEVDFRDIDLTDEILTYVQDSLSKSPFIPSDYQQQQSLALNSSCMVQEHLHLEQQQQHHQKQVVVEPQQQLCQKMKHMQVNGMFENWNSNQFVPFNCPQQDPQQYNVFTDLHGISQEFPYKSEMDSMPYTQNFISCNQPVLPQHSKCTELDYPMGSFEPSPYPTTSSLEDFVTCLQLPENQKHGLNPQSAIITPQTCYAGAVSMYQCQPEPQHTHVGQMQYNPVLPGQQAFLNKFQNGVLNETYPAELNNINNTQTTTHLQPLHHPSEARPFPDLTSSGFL
Description: Activation of human AhR, GeneBLAzer CYP1A1-bla LS-180 beta-lactamase reporter-gene assay. The format is cell-based. The settings on record: assay reference compound (control activator). On the procedure: Activation of the aryl hydrocarbon receptor can be measured in cell-based reporter-gene assays, which consist of cell lines containing the aryl hydrocarbon recptor and transfected with a reporter gene regulated by activated Ahr via an XRE (xenobiotic response element). AhR activation will thus result in an enhanced expression of the reporter protein (e.g. luciferase) which functional activity can be measured.
Activation of human AhR was measured in the GeneBLAzer® CYP1A1-bla LS-180 cell line (Invitrogen Corporation, Madison, www.invitrogen.com/drugdiscovery) using a beta-lactamase reporter gene (bla) combined with a FRET-enabled substrate sensitive to bla expression.
CYP1A1-bla LS-180 cells are harvested and suspended in Assay Media (OPTI-MEM, 0.5% dialyzed FBS, 0.1 mM NEAA, 1 mM Sodium Pyruvate, 100 U/mL/100 μg/mL Pen/Strep) to a concentration of 625,000 cells/mL. 32 μL of cell suspension (20,000 cells) is added to each well of a 384-well Poly-D-Lysine assay plate. Cells in assay media are incubated for 16-24 hours in the plate at 37° C./5% CO2 in a humidified incubator. 4 μL of a 10× serial dilution of beta-naphthoflavone (control activator starting concentration, 100,000 nM) or compounds are added to appropriate wells. 4 μL of Assay Media is added to all wells to bring the final assay volume to 40 μL. […] The plate is read on a fluorescence plate reader. […]

What is called Solubility is the concentration that dissolves in the medium under given conditions. The low end stands for little dissolved substance, the high end for much dissolved substance. In general, solubility refers to how much of the substance goes into solution per volume. In data set [1], `CC(=O)Oc1c(C(=O)N(C(C)=O)c2ccccc2)c(=O)n(C)c2ccccc12` [Compound 1, N-acetyl-N-phenyl-4-acetoxy-1,2-dihydro-1-methyl-2-oxo-quinoline-3-carboxamide] displayed a Solubility of 38 µg/mL (≈ 100 µM) and a solubility at 24 h of 21 µg/mL (≈ 55.5 µM).
With `CC(=O)Oc1c(C(=O)N(C(C)=O)c2ccccc2)c(=O)n(C)c2cccc(Cl)c12` [Compound 9, N-acetyl-N-phenyl-4-acetoxy-5-chloro-1,2-dihydro-1-methyl-2-oxo-quinoline-3-carboxamide], the “severity of the first disease period after discontinuation of treatment” value in data set [2] (1 mg/kg s.c. day 0, 3, 6 and 9, versus vehicle control) is reported as “lower than for vehicle control treated animals”. The “EAE development (clinical score)” value in data set [2] (1 mg/kg s.c. in corn oil day 0, 3, 6 and 9, DA rats) is on record as “efficiently prevented EAE development”.
The molecule `Cn1c(=O)c(C(=O)Nc2ccccc2)c(O)c2ccccc21` [Compound 3, N-phenyl-1,2-dihydro-4-hydroxy-1-methyl-2-oxo-quinoline-3-carboxamide, reference compound] had a solubility at 24 h in data set [1] of less than 1 µg/mL.
In data set [1], `CC(=O)Oc1c(C(=O)Nc2ccccc2)c(=O)n(C)c2ccccc12` [Compound 2, N-phenyl-4-acetoxy-1,2-dihydro-1-methyl-2-oxo-quinoline-3-carboxamide] registered a Solubility of 221 µg/mL (≈ 657 µM) and a solubility at 24 h of 186 µg/mL (≈ 553 µM).
As a reminder, the pEC50 is the negative decadic logarithm of the EC50, by convention in mol/L. Read a high pEC50 as a low EC50. Consider `O=c1cc(-c2ccccc2)oc2ccc3ccccc3c12` [beta-naphthoflavone], for which the negative-log EC50 (pEC50) on human AhR was 5.68.

Source of the values: patent US8962598B2, “1,2-dihydro-4-hydroxy-2-oxo-quinoline-3-carboxanilides as AHR activators” (Immunahr AB, priority 2010, dated 2015).
